According to patent US9452994B2, “Manufacturing process for pyrimidine derivatives” (Novartis AG, priority 2010, dated 2016):

Experiment: moisture uptake of solid forms at given relative humidity
Assay type: physicochemical

Nc1cc(C(F)(F)F)c(-c2cc(N3CCOCC3)nc(N3CCOCC3)n2)cn1 [5-(2,6-Di-4-morpholinyl-4-pyrimidinyl)-4-trifluoromethylpyridin-2-amine]
moisture uptake (85% relative humidity): 8.9%

Cl.Nc1cc(C(F)(F)F)c(-c2cc(N3CCOCC3)nc(N3CCOCC3)n2)cn1 [5-(2,6-Di-4-morpholinyl-4-pyrimidinyl)-4-(trifluoromethyl)pyridin-2-amine monohydrochloride]
hygroscopicity (in words): only slightly hydroscopic
maximum moisture uptake (25° C., up to 92% relative humidity): less than 0.1%

Cl.Nc1cc(C(F)(F)F)c(-c2cc(N3CCOCC3)nc(N3CCOCC3)n2)cn1.O [5-(2,6-Di-4-morpholinyl-4-pyrimidinyl)-4-(trifluoromethyl)pyridin-2-amine monohydrate monohydrochloride]
moisture uptake (75% relative humidity): 4.4%
moisture uptake (95% relative humidity): 4.9%

5-(2,6-Di-4-morpholinyl-4-pyrimidinyl)-4-trifluoromethylpyridin-2-amine hemihydrate
moisture uptake (25% relative humidity): 1.9%
